Assay results as given in patent US20100137266A1, “TREATMENT OF INSULIN RESISTANCE AND DISORDERS ASSOCIATED THEREWITH” (UNIVERSITETET I OSLO, priority 2006, published 2010).

Key:
[1] = system: rat FAS luciferase reporter; test: Transfection and luciferase assay with rat FAS promoter reporter in COS-1 cells co-transfected with RXRα and LXRα; format: cell-based; settings: COS-1 cells with RXRα and LXRα expression vectors; 1 μM T0901317 or 10 μM 22-HC for 48 h; vs unstimulated control cells
Experimental: FIG. 6. […] COS-1 cells were transient transfected with rat FAS luciferase reporter and co-transfected with β-galactosidase (internal control), RXRα and LXRα expression vectors. Medium was supplied with vehicle (0.1% DMSO), 1 μM T0901317, 10 μM 22-R-hydroxycholesterol (22-R-HC) or 10 μM 22-S— hydroxycholesterol (22-S-HC) for 48 h. The results represent one of two experiments performed with triplicate cell culture dishes and are presented as means±SD.
Transfection and Luciferase Assay. Monkey kidney COS-1 cells (ATCC no. CRL 1650) were grown in DMEM supplemented with 10% FBS. For reporter gene assays, COS-1 cells were transiently transfected with luciferase reporter containing sequences from −1594 to +67 bp of the rat FAS promoter (5 μg), with a known LXR responsive element (LXRE) located at −669 to −655 (kindly provided by Peter Tontonoz, Howard Hughes Medical Institute, California, USA) and co-transfected with pCMX-RXRα, pCMX-LXRα, (1 μg each), and pSV-β-galactosidase (3 μg) expression vectors with calcium phosphate precipitation. Total DNA concentration was adjusted to 12 μg with corresponding empty expression vectors and pGL3-basic vector. After 3 h of transfection, medium containing appropriate reagents was added for 48 h. Cells were harvested in 100 μl lysis buffer, and luciferase activities were measured in a TD-20/20 Luminometer (Turner Designs, Sunnyvale, Calif.) using the dual luciferase assay kit (Promega). Relative luciferase activity was normalized against β-galactosidase activity.

[2] = system: human myotubes; test: Glucose uptake (2-deoxy-D-glucose) in myotubes; format: cell-based; settings: for basal glucose uptake, increase: myotubes from young, healthy subjects, exposure for 4 days, 1 μmol/l T0901317 or 10 μmol/l 22-HC
Text: FIG. 7. Glucose transport is increased in human myotubes after chronic 22-S-HC treatment. Human myoblasts were allowed to differentiate for 2 days, and then exposed to 1 μmol/1 T0901317, 10 μmol/[…]) or 1, 2, 5 and 10 μmol/1 22-S-HC(S-HC) for 4 days. […] (A) Present means for glucose uptake±SEM (n=4). Basal level for control are 1.20±0.24 nmol/mg cell protein. (B) A representative dose-response curve for glucose uptake after 1, 2, 5 and 10 μmol/l 22-S-HC treatment (n=3). (C) Total RNA were reversely transcribed and analyzed by Real-Time RT-PCR. Results are normalized to levels of 36B4 and present means±SEM (n=4-6). Relative expressions of GLUT1, GLUT3, GLUT4, and hexokinase (HK)II, ^ap<0.05 vs control, ^dp<0.05 vs T0901317. Glucose Uptake. Skeletal biopsies were taken from M.vastus lateralis of healthy human donors and human myoblasts were allowed to differentiate for 4 days. On day 4, myotubes were exposed to T0901317 or 22-R-HC or 22-S-HC for another 4 days. […] Cells were solubilized by addition of 500 μl 0.1 mol/l NaOH. An aliquot (50 μl) was removed for protein determination (Bradford 1976) 300 μl was counted by liquid scintillation ([…] and Beck-Nielsen 2004).

## CC(C)CC[C@H](O)[C@@H](C)[C@H]1CC[C@H]2[C@@H]3CC=C4C[C@@H](O)CC[C@]4(C)[C@H]3CC[C@]12C [Example 22-S-HC, 22-S-hydroxycholesterol]
[1]
  rat FAS promoter luciferase reporter activity: seemed to reduce reporter activity
[2]; 0, 1.0, 2.0, 5.0 and 10 μmol/l for 4 days
  basal glucose uptake, dose response: increased in a dose—dependent manner
[2]
  basal glucose uptake, increase: 2 fold
  glucose uptake after pre-treatment of myotubes (summary statement): marked stimulation

## CC(C)CC[C@@H](O)[C@@H](C)[C@H]1CC[C@H]2[C@@H]3CC=C4C[C@@H](O)CC[C@]4(C)[C@H]3CC[C@]12C [Example 22-R-HC, 22-R-hydroxycholesterol]
[1]
  rat FAS promoter luciferase reporter activity: unable to regulate the FAS gene promoter
[2]
  basal glucose uptake, increase: tended to increase
  glucose uptake after pre-treatment of myotubes (summary statement): only a slight or no significant effect

## O=S(=O)(c1ccccc1)N(CC(F)(F)F)c1ccc(C(O)(C(F)(F)F)C(F)(F)F)cc1 [Example T0901317]
[1]
  rat FAS promoter luciferase reporter activity: 6.5 fold
[2]
  basal glucose uptake, increase: no effect
  glucose uptake after pre-treatment of myotubes (summary statement): only a slight or no significant effect
